Key:
[1] = target: T1, Potassium-transporting ATPase (Sus scrofa) (UniProt P18434+P19156); test: Inhibition of procine gastric H+,K+-ATPase at 100 uM in vitro.; type: tissue-based; details: Stomach
[2] = target: T1, Potassium-transporting ATPase (Sus scrofa); test: Inhibition of procine gastric H+,K+-ATPase at 10 uM in vitro.; type: tissue-based; details: Stomach
[3] = target: T1, Potassium-transporting ATPase (Sus scrofa); test: Inhibition of procine gastric H+,K+-ATPase at 1 uM in vitro.; type: tissue-based; details: Stomach
[4] = Vmax value was measured at 0 uM concentration of silyl ether.; type: ADME, Sus scrofa; details: pig
[5] = Vmax value was measured at 5 uM concentration of silyl ether.; type: ADME, Sus scrofa; details: pig
[6] = target: Potassium-transporting ATPase (Sus scrofa, UniProt P19156); test: Tested for inhibitory activity against gastric H+, K+-ATPase; type: tissue-based, Stomach
[7] = Vmax value was measured at 10 uM concentration of silyl ether.; type: ADME, Sus scrofa; details: pig
[8] = Michaelis-Menten constant of the compound.; type: ADME, Sus scrofa; details: pig

Sequence of Potassium-transporting ATPase (P18434 whole entry): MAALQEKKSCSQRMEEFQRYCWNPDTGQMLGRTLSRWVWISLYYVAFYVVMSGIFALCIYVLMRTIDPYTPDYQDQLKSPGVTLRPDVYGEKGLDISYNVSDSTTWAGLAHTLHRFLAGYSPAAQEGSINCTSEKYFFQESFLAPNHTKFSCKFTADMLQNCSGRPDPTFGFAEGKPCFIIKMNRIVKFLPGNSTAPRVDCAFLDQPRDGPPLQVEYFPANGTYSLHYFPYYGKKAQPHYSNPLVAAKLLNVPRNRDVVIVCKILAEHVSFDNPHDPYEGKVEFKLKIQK
Sequence of Potassium-transporting ATPase (P19156 whole entry): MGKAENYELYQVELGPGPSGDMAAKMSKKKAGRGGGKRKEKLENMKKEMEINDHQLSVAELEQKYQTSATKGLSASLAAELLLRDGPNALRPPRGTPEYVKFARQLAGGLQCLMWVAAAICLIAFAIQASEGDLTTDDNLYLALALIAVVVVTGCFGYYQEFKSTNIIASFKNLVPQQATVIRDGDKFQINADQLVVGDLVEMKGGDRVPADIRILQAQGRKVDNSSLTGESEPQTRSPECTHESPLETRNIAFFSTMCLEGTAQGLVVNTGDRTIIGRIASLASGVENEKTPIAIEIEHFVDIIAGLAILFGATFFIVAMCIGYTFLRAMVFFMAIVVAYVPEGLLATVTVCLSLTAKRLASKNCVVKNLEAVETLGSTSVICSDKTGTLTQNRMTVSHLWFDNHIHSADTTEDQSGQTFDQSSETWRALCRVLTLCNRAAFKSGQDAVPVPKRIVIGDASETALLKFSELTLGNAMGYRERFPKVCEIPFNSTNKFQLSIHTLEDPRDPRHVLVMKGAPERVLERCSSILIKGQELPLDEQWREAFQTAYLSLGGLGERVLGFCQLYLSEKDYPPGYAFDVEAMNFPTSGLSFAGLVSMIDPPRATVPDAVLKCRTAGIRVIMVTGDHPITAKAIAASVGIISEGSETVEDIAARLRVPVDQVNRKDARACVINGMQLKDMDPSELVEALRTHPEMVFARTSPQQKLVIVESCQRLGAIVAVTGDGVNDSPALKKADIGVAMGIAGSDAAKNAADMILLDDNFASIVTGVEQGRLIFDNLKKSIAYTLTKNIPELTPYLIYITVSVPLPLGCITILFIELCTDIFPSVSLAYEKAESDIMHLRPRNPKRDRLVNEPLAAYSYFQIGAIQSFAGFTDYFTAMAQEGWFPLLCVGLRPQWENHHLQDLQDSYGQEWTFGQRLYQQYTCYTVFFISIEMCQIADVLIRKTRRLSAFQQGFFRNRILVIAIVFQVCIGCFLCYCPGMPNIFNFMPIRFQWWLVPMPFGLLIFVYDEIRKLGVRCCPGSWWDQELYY

| inhibition [1] | inhibition [2] | inhibition [3] | Vmax [4] | Vmax [5] | IC50 [6] | Vmax [7] | Km [8] | SMILES |
| --- | --- | --- | --- | --- | --- | --- | --- | --- |
| 8% | 14% | 9% |  |  |  |  |  | CO[C@H]1C[C@@H]2CC(=O)C3=C(CCC[C@@]3(C)CO)[C@]23CC[C@@]1(C)C3 |
| 21% | 0% | -6% |  |  |  |  |  | CO[C@H]1C[C@@H]2C[C@H](O)c3c(C(=O)O)cccc3[C@]23CC[C@@]1(C)C3 |
| 55% | 16% | 1% |  |  |  |  |  | CO[C@H]1C[C@@H]2C[C@@H]3OC(=O)c4cccc(c43)[C@]23CC[C@@]1(C)C3 |
| 67% | 32% | 4% |  |  |  |  |  | COCO[C@H]1C[C@@H]2C[C@@H](O[Si](C)(C)C)C3[C@@H](C#N)CCC[C@]3(C)[C@]23CC[C@@]1(C)C3 (some centres not stated) |
| 93% | 63% | 14% |  |  |  |  |  | C=C1CCC(C)=CC[C@@H]1C[C@H](/C=C(\I)CCCC1OCCO1)O[Si](C)(C)C(C)(C)C |
| 98% | 63% | 15% |  |  |  |  |  | C=C1CCC(C)=CCC1CC(O[Si](C)(C)C(C)(C)C)c1ccccc1I (configuration not stated) |
| 61% | 9% | 16% |  |  |  |  |  | C[C@]12C=CC3=CC(=O)c4ccccc4[C@@]3(CC1)C2 |
| 95% | 74% | 30% | 125 µM/h/mg | 63 µM/h/mg | 8.2 µM | 31 µM/h/mg | 460 µM | CC1=CCC(CC(O[Si](C)(C)C(C)(C)C)c2ccccc2I)C(=O)CC1 (configuration not stated) |
| 17% | 17% | 8% |  |  |  |  |  | C[C@]12CC[C@]3(C1)C(=CC(=O)c1ccccc13)C[C@@H]2O |
| 34% | 9% | 11% |  |  |  |  |  | CC1=CCC(CCO)C(=O)CC1 (configuration not stated) |
| 72% | 19% | 10% |  |  |  |  |  | CC1=CCC(CC(O)c2ccccc2I)C(=O)CC1 (configuration not stated) |
| 0% | 19% | 18% |  |  |  |  |  | C[C@]12CC[C@@]3(C1)c1ccccc1C(=O)C[C@H]3C[C@@H]2O |
| 52% | 9% | -2% |  |  |  |  |  | C[C@]12CCC3=CC(=O)c4ccccc4[C@@]3(CC1)C2 |
| 80% | 50% | 29% |  |  |  |  |  | C=C[C@@]1(C)C[C@@H]1C(=O)CCC(O[Si](C)(C)C(C)(C)C)c1ccccc1I (some centres not stated) |
| 20% | 13% | 8% |  |  |  |  |  | C=C1CCC(C)=CC[C@@H]1C[C@@H](O)C#CCCCC1OCCO1 |
| 52% | 44% | 25% |  |  |  |  |  | COCO[C@H]1C[C@@H]2C[C@@H](O[Si](C)(C)C)C3[C@](C#N)(COCc4ccccc4)CCC[C@]3(C)[C@]23CC[C@@]1(C)C3 (some centres not stated) |
| 42% | 17% |  |  |  |  |  |  | CO[C@H]1C[C@@H]2CC(=O)c3ccccc3[C@]23CC[C@@]1(C)C3 |
| 62% | 21% | 7% |  |  |  |  |  | C[C@]12CC[C@]3(C1)[C@H](CC2=O)C[C@@H](OC(=O)c1ccccc1)[C@H]1[C@](C)(C(=O)O)CCC[C@@]13C |
| 81% | 74% | 36% |  |  |  |  |  | COC(=O)[C@]1(C)CCC[C@@]2(C)[C@H]1[C@H](OC(=O)c1ccccc1)C[C@H]1CC(=O)[C@@]3(C)CC[C@]12C3 |
| 63% | 35% | 8% |  |  |  |  |  | C=C[C@@]1(C)C[C@@H]1C(=O)CCC(O)c1ccccc1I (some centres not stated) |

| SMILES | inhibition [1] | inhibition [2] | inhibition [3] | Vmax [4] | Vmax [5] | IC50 [6] | Vmax [7] | Km [8] |
| --- | --- | --- | --- | --- | --- | --- | --- | --- |
| COCO[C@H]1C[C@@H]2CC(=O)C3[C@@H](C#N)CCC[C@]3(C)[C@]23CC[C@@]1(C)C3 (some centres not stated) | 17% | 7% | 5% |  |  |  |  |  |

Reference: ChEMBL document CHEMBL1150552, “Silyl ethers of cycloheptene, novel proton pump inhibitors obtained during the total synthesis of the scopadulcic acids” (Bioorg Med Chem Lett, 1995)
